According to ChEMBL document CHEMBL3813672, “Discovery of anti-cancer activity for benzo[1,2,4]triazin-7-ones: Very strong correlation to pleurotin and thioredoxin reductase inhibition” (Bioorg Med Chem, 2016):
pIC50: −log10 of the molar value.

What was measured:
[1] = Growth inhibition of human HL-60(TB) cells assessed as cell growth at 10 uM incubated for 48 hrs by sulforhodamine B assay relative to control; format: functional; conditions: HL-60, 48 h, read-out: Activity
K562 = experiment: Growth inhibition of human K562 cells assessed as cell growth at 10 uM incubated for 48 hrs by sulforhodamine B assay relative to control; format: functional; conditions: K562, 48 h, read-out: Activity
SR = experiment: Growth inhibition of human SR cells assessed as cell growth at 10 uM incubated for 48 hrs by sulforhodamine B assay relative to control; format: functional; conditions: read-out: Activity
[2] = Growth inhibition of human HOP62 cells assessed as cell growth at 10 uM incubated for 48 hrs by sulforhodamine B assay relative to control; format: functional; conditions: HOP-62, 48 h, read-out: Activity
NCI-H23 = experiment: Growth inhibition of human NCI-H23 cells assessed as cell growth at 10 uM incubated for 48 hrs by sulforhodamine B assay relative to control; format: functional; conditions: NCI-H23, 48 h, read-out: Activity
NCI-H460 = experiment: Growth inhibition of human NCI-H460 cells assessed as cell growth at 10 uM incubated for 48 hrs by sulforhodamine B assay relative to control; format: functional; conditions: NCI-H460, 48 h, read-out: Activity
NCI-H522 = experiment: Growth inhibition of human NCI-H522 cells assessed as cell growth at 10 uM incubated for 48 hrs by sulforhodamine B assay relative to control; format: functional; conditions: NCI-H522, 48 h, read-out: Activity
[3] = Growth inhibition of human COLO205 cells assessed as cell growth at 10 uM incubated for 48 hrs by sulforhodamine B assay relative to control; format: functional; conditions: COLO 205, 48 h, read-out: Activity
[4] = Growth inhibition of human HCC2998 cells assessed as cell growth at 10 uM incubated for 48 hrs by sulforhodamine B assay relative to control; format: functional; conditions: HCC 2998, 48 h, read-out: Activity
[5] = Growth inhibition of human HCT15 cells assessed as cell growth at 10 uM incubated for 48 hrs by sulforhodamine B assay relative to control; format: functional; conditions: HCT-15, 48 h, read-out: Activity
KM12 = experiment: Growth inhibition of human KM12 cells assessed as cell growth at 10 uM incubated for 48 hrs by sulforhodamine B assay relative to control; format: functional; conditions: KM12, 48 h, read-out: Activity
[6] = Growth inhibition of human SNB75 cells incubated for 48 hrs by sulforhodamine B assay; format: functional; conditions: SNB-75, 48 h
M14 [7] = experiment: Growth inhibition of human M14 cells incubated for 48 hrs by sulforhodamine B assay; format: functional; conditions: M14, 48 h
[8] = Growth inhibition of human BT549 cells incubated for 48 hrs by sulforhodamine B assay; format: functional; conditions: BT-549, 48 h
[9] = Cytotoxicity against human DU145 cells assessed as reduction in cell viability after 72 hrs by MTT assay; format: functional, cell-based; conditions: DU-145, 72 h
[10] = Selectivity ratio of IC50 for human GM00637 cells to IC50 for human MCF7 cells; format: ADME, cell-based; conditions: GM00637 cells versus MCF7 cells, read-out: Ratio IC50
[11] = Quasi-reversible one electron redox potential in dichloromethane containing 0.1 M TBAP assessed as redox potential during 0/-1 redox transition at 2 mmol measured at 100 mV/s in presence of Fc/Fc by cyclic voltammetry; format: physicochemical
[12] = Growth inhibition of human SNB19 cells assessed as cell growth at 10 uM incubated for 48 hrs by sulforhodamine B assay relative to control; format: functional; conditions: SNB-19, 48 h, read-out: Activity
[13] = Growth inhibition of human LOXIMVI cells assessed as cell growth at 10 uM incubated for 48 hrs by sulforhodamine B assay relative to control; format: functional; conditions: LOX IMVI, read-out: Activity
Malme-3M = experiment: Growth inhibition of human MALME-3M cells assessed as cell growth at 10 uM incubated for 48 hrs by sulforhodamine B assay relative to control; format: functional; conditions: read-out: Activity
M14 [14] = experiment: Growth inhibition of human M14 cells assessed as cell growth at 10 uM incubated for 48 hrs by sulforhodamine B assay relative to control; format: functional; conditions: M14, 48 h, read-out: Activity
MDA-MB-435 = experiment: Growth inhibition of human MDA-MB-435 cells assessed as cell growth at 10 uM incubated for 48 hrs by sulforhodamine B assay relative to control; format: functional; conditions: MDA-MB-435, 48 h, read-out: Activity
SK-MEL-2 = experiment: Growth inhibition of human SK-MEL-2 cells assessed as cell growth at 10 uM incubated for 48 hrs by sulforhodamine B assay relative to control; format: functional; conditions: SK-MEL-2, 48 h, read-out: Activity
SK-MEL-28 = experiment: Growth inhibition of human SK-MEL-28 cells assessed as cell growth at 10 uM incubated for 48 hrs by sulforhodamine B assay relative to control; format: functional; conditions: SK-MEL-28, 48 h, read-out: Activity
[15] = Growth inhibition of human UACC257 cells assessed as cell growth at 10 uM incubated for 48 hrs by sulforhodamine B assay relative to control; format: functional; conditions: UACC-257, 48 h, read-out: Activity
[16] = Growth inhibition of human OVCAR3 cells assessed as cell growth at 10 uM incubated for 48 hrs by sulforhodamine B assay relative to control; format: functional; conditions: OVCAR-3, 48 h, read-out: Activity
[17] = Growth inhibition of human OVCAR4 cells assessed as cell growth at 10 uM incubated for 48 hrs by sulforhodamine B assay relative to control; format: functional; conditions: OVCAR-4, 48 h, read-out: Activity
[18] = Growth inhibition of human OVCAR8 cells assessed as cell growth at 10 uM incubated for 48 hrs by sulforhodamine B assay relative to control; format: functional; conditions: OVCAR-8, 48 h, read-out: Activity
[19] = Growth inhibition of human SKOV3 cells assessed as cell growth at 10 uM incubated for 48 hrs by sulforhodamine B assay relative to control; format: functional; conditions: SK-OV-3, 48 h, read-out: Activity
786-0 = experiment: Growth inhibition of human 786-0 cells assessed as cell growth at 10 uM incubated for 48 hrs by sulforhodamine B assay relative to control; format: functional; conditions: 786-0, 48 h, read-out: Activity
[20] = Growth inhibition of human UO31 cells assessed as cell growth at 10 uM incubated for 48 hrs by sulforhodamine B assay relative to control; format: functional; conditions: UO-31, 48 h, read-out: Activity
MCF7 = experiment: Growth inhibition of human MCF7 cells assessed as cell growth at 10 uM incubated for 48 hrs by sulforhodamine B assay relative to control; format: functional; conditions: MCF7, 48 h, read-out: Activity
T47D = experiment: Growth inhibition of human T47D cells assessed as cell growth at 10 uM incubated for 48 hrs by sulforhodamine B assay relative to control; format: functional; conditions: read-out: Activity
ACHN = experiment: Growth inhibition of human ACHN cells assessed as cell growth at 10 uM incubated for 48 hrs by sulforhodamine B assay relative to control; format: functional; conditions: read-out: Activity
[21] = read-out: pLC50 (the source's name) (converted)

Row | SMILES | growth at 10 µM [1] [%] | growth at 10 µM (K562) [%] | growth at 10 µM (SR) [%] | growth at 10 µM [2] [%] | growth at 10 µM (NCI-H23) [%] | growth at 10 µM (NCI-H460) [%] | growth at 10 µM (NCI-H522) [%] | growth at 10 µM [3] [%] | growth at 10 µM [4] [%] | growth at 10 µM [5] [%] | growth at 10 µM (KM12) [%] | pIC50 [9] | Activity [11] [V] | growth at 10 µM [12] [%] | growth at 10 µM [13] [%] | growth at 10 µM (Malme-3M) [%] | growth at 10 µM (M14 [14]) [%] | growth at 10 µM (MDA-MB-435) [%] | growth at 10 µM (SK-MEL-2) [%] | growth at 10 µM (SK-MEL-28) [%] | also measured
1 | O=c1ccc2nc(C(F)(F)F)nn(-c3ccccc3)c-2c1 | -36.6 | -35.1 | -11.3 | 66 | 67.7 | 97.3 | -56 | -70.7 | 102 | -79.7 | 96.8 | 6.07 | -0.86 | 93.5 | 4.3 | -41.7 | 62.1 | 62.3 | 78.3 | 35.7 | GI50 [6]: 13.2 µM; CC50 [6, 21]: 52.5 µM; TGI ([6]; read-out: pTGI (converted)): 26.3 µM; GI50 (M14 [7]): 5.75 µM; CC50 (M14 [7]; [21]): 45.7 µM; TGI (M14 [7]; read-out: pTGI (converted)): 19.1 µM; GI50 [8]: 12.3 µM; CC50 [8, 21]: 50.1 µM; TGI ([8]; read-out: pTGI (converted)): 24.5 µM; selectivity ratio [10]: 3; growth at 10 µM [15]: 35.6%; growth at 10 µM [16]: -26.1%; growth at 10 µM [17]: 79.8%; growth at 10 µM [18]: 73.1%; growth at 10 µM [19]: 79.3%; growth at 10 µM (786-0): 22.2%; growth at 10 µM [20]: 24%; growth at 10 µM (MCF7): -49.3%; growth at 10 µM (T47D): -40.5%; growth at 10 µM (ACHN): -89%
2 | O=c1ccc2nc(-c3ccccc3)nn(-c3ccccc3)c-2c1 | -45.5 | -39 | -20.2 | 69.5 | 54.4 | 61.5 | -90.5 | -76.8 | 100 | -75.9 | 63.1 | 6.64 | -1.12 | 76 | -51.6 | -92.5 | 51.2 | 24.6 | 44.6 | 26.4 | growth at 10 µM [15]: -97.3%; growth at 10 µM [16]: -96.2%; growth at 10 µM [17]: -40.6%; growth at 10 µM [18]: -2.36%; growth at 10 µM [19]: 59.1%; growth at 10 µM (786-0): 48.6%; growth at 10 µM [20]: -97.5%; growth at 10 µM (MCF7): -66.7%; growth at 10 µM (T47D): -36.5%; growth at 10 µM (ACHN): -96%
